These results are taken from patent publication EP2167056B1, “TRANSDERMAL AND TRANSMUCOSAL DRUG DELIVERY ENHANCERS” (priority 2007, dated 2008).

Read-outs that look alike come from different tables or passages of the source.

Series [1] in a line: Franz diffusion cell permeation of hydromorphone hydrochloride with delmopinol analogues (Example 2). The note with it: 5 % hydromorphone hydrochloride in distilled water with 25 % delmopinol analogue. The protocol: The permeation test was carried out using a Franz diffusion cell with a diffusion area of 1.8 cm^2 as in Example 1. […] Penetration with or without addition of different delmopinol analogues was studied in 5 parallel tests (3 cells per test).

Series [2] deals with plasma glucose. Nature of the series: Nasal absorption of insulin with octapinol hydrochloride, reduction in plasma glucose (Example 6). It is filed as in vivo, Sprague Dawley male rats. The note with it: for D (%) total reduction in plasma glucose / Maximum reduction in plasma glucose (%): nasal, mean (S.D.), n=6. The procedure:
Tests on the enhancement effect of octapinol (M1523), i.e.4-(2-propylpentyl)-1- 2-propylpentyl)-1-piperidine-ethanol, a compound according to Formula (I), for nasal absorption of peptides were carried out on Sprague Dawley male rats with an individual weight of 250-300 g. The rats were fasted for 15-17 hours and anaesthetized prior to the tests. Trachea and arteria carotis were catheterized with a polyethylene tube. The peptide used for the tests was insulin.
The rats were divided into 5 groups and were administered through the nostril via a polyethylene tube with • 1 % octapinol hydrochloride (placebo group) • insulin (Actrapid ® Human from NovoNordisk, Denmark) 5 IE/kg body weight in physiological NaCl (control group) • insulin 2.5 IE/kg body weight with 0.02% octapinol hydrochloride (test group) • insulin 2.5 IE/kg body weight with 0.2% octapinol hydrochloride (test group) • insulin 2.5 IE/kg body weight with 1% octapinol hydrochloride (test group) The pH-value was 3.1 in the test solutions. The administration volume per rat was 25-30 µl.
There were 4 rats in the placebo group, 3 rats in the control group and 6 rats in each of the three test groups.
During the initial tests octapinol hydrochloride was administered nasally together with insulin 5 IE/kg body weight. At an early stage, pronounced reductions in plasma glucose with 1% octapinol hydrochloride were noted.
In the control and test groups 150 µl blood was taken from arteria carotis 0, 10, 20, 30, 40, 50, 60, 120, 180 and 240 minutes respectively after administration.
(§1) The plasma content of glucose was determined through measurement of the amount NADH formed in accordance with the below reactions. [drawing 4] glucose-6-phosphate + NAD^+ -----> 6-phosphogluconate + NADH + H^+
The change in glucose content was set off against time and the area below the graph (AUC) was calculated with the trapezium method.
The total reduction in plasma glucose (D%) and the maximal reduction in plasma glucose after nasal administration of insulin with octapinol hydrochloride is given in Table 6. The total reduction in plasma glucose (D%) was calculated according to Hirai et al (Int. J. Pharmaceut., 9,173-184: 1981). D % = (AUCc −AUCin)/(AUCc) × 100 [formula] • AUCc= area under the graph for intranasally administered insulin 5 IE/kg body weight in physiological Na Cl (control group) • AUCin= area under the graph for intranasally administered insulin in octapinol solution Table 6

Series [3] deals with plasma glucose. The series is described as follows: Intravenous administration of octapinol hydrochloride + insulin, reduction in plasma glucose. It is filed as in vivo, Sprague Dawley male rats. The following applies: 1% octapinol hydrochloride + 0.2 IE insulin/kg intravenously, after 20 minutes. The protocol: A reduction in plasma glucose of about 40 % was observed after 20 minutes.
as §1

Series [4] is described as follows: Franz diffusion cell permeation of 3H-labeled TRH (Example 5). It is filed as in vitro ADME, human.
Procedure: A human full-skin sample was positioned in the cell with a 0.05 M phosphate buffer solution (pH 6.0) as receiving phase on the "receptor" side of the skin. 180 µl of 5 % thyroid-releasing hormone (TRH) in dist. water with and without the addition of 25% delmopinol hydrochloride was used on the "donor" side of the skin. The TRH was ^3H-labeled. Penetration with and without addition of delmopinol hydrochloride was studied in 2 parallel tests (4 cells per test).
Radioactivity in the receiving phase was read at different time intervals over a one week period.
The procedure of series [5]: The permeation test was carried out using a Franz diffusion cell with a diffusion area of 1.8 cm^2 as in Example 1. […] 180 µl of 1 % nicotinic acid in distilled water with and without the addition of 25% delmopinol hydrochloride was used on the "donor" side of the skin. The nicotinic acid was ^14C-labeled. Penetration with and without addition of delmopinol hydrochloride was studied in 2 parallel tests (3 cells per test).
Radioactivity in the receiving" phase was read at different time intervals over a one week period. […]

The source holds these as a separate data set.
The format of series [6] is in vitro ADME, human. The protocol: 180 µl of 1 % mannitol in distilled water with and without the addition of 1, 5, 10 and 25 % delmopinol hydrochloride respectively was used on the "donor" side of the skin. The mannitol was ^3H-labeled.
A very pronounced effect of the penetration enhancer was seen, but only little if any difference between the concentrations 5, 10 and 25 %, as shown in Table 4.

Where [7] appears, read: insulin 2.5 IE/kg with 0.02 % octapinol hydrochloride.
Where [8] appears, read: insulin 2.5 IE/kg with 0.2 % octapinol hydrochloride.
The mark [9] stands for this setting: insulin 2.5 IE/kg with 1 % octapinol hydrochloride.

As to `CCCC(CCC)CC1CCN(CCO)CC1` [M 1523 (octapinol)], in series [1], the “Flux (of hydromorphone hydrochloride)” value was found to be 13 µg/h/cm^2. In addition, the “change in plasma glucose level” value in the series on plasma glucose [2] (1% octapinol hydrochloride alone, nasally, four rats) is reported as “No significant change”. The “reductions in plasma glucose, of the initial plasma glucose value” with plasma glucose [2] (initial tests: nasal, insulin 5 IE/kg with 1% octapinol hydrochloride) is reported as 85 - 90%. Besides, the “D (%) total reduction in plasma glucose” value with plasma glucose [2] (setting [7]) is 3.6 (3.2) %; in the series on plasma glucose [2] (setting [8]), 9.5 (5.3) %; with plasma glucose [2] (setting [9]) it was 23.8 (5.8) %. Moreover, the figures for the “Maximum reduction in plasma glucose (%)” value with plasma glucose [2] (setting [7]), in the series with plasma glucose [2] (setting [8]) and in the series with plasma glucose [2] (setting [9]) were 3.5 (2.9) %, 6.5 (3.5) % and 39.1 (11.3) %, respectively. Also, the “reduction in plasma glucose” value in the series with plasma glucose [3] was “about 40%”.
As for “thyroid-releasing hormone (TRH) [reference compound]”, the “Flux (steady state flux of TRH)” value in series [4] (5 % TRH in dist. water without enhancer) was found to be 4 ng/h/cm^2.
With `O=C(O)c1cccnc1` [nicotinic acid, reference compound], in series [5], the “Flux (steady state flux of nicotinic acid)” value is 0.15 µg/h/cm^2.
For `CCCCCCCCCCC1CN(CCCO)CCO1` (stereo not shown) [M 1676], the “Flux (of hydromorphone hydrochloride)” value in series [1] is 19 µg/h/cm^2.
With `CCCC(CCC)CCCC1COCCN1CCO` (stereo not shown) [delmopinol], the “steady state flux of morphine sulphate” value (10 % morphine sulphate in distilled water with 25% delmopinol hydrochloride) is “about 26 µg/h/cm^2”. Besides, under “in the presence of 25 % delmopinol versus without”, the “factor by which permeation of hydromorphone hydrochloride is increased” value is listed as “about 290”. For the same compound, the “Flux (steady state flux of nicotinic acid)” value in series [5] (pH 7.4) was 1.5 µg/h/cm^2. Also, the “Flux (steady state flux of TRH)” value in series [4] (pH 6) is reported as 34 ng/h/cm^2.
Consider `CCCC(CCC)CCCC1COCC[N+]1(C)CCO.[Cl-]` (stereo not shown) [M 1713, 4-(2-hydroxyethyl)-4-methyl-3-(4-propylheptyl)-morpholinium chloride], for which the “Flux (of hydromorphone hydrochloride)” value in series [1] is 4.8 µg/h/cm^2.
`OC[C@@H](O)[C@@H](O)[C@H](O)[C@H](O)CO` [mannitol, reference compound]: the “Flux (of mannitol)” value in series [6] is 6.6 µg/h/cm^2.
